Assay: Solubility of prodiamine in solvents
Type: physicochemical
From the text: The aprotic solvent is preferably a pyrrolidone such as NMP, though one or more of dimethylsulfoxide (DMSO), dimethylformamide, and gamma-Butyrolactone alone or in mixtures, including mixtures with NMP, are useful. DMSO and gamma-Butyrolactone dissolve 0.24 to 0.25 grams prodiamine per gram solvent. NMP dissolves 0.68 grams prodiamine per gram solvent. The aprotic solvent is the primary solvent in most embodiments of the EC.
There are a number of solvents that are not suitable and would be included only to change the composition.
Fatty amides, also called “fatty acid solvents” in this application, are amides formed from a fatty acid and an amine, of which many are known. Preferred are di-substituted fatty acid amides, which include as non-limiting examples N,N-dimethylcaprylamide (available from Cognis as Agnique™ KE-3658), and […] (available as Halcomid™ M8-10). These compounds can fully or partially replace aprotic solvents, and the solvating capacity approaches that of less-preferred aprotic solvents such as DMSO and gamma-Butyrolactone, that is, 0.24 to 0.25 grams prodiamine per gram solvent. A mixture of C8 and C10 fatty acid dimethylamide, (CAS 1118-92-9 and 14433-76-2) are useful.

SMILES: CCCN(CCC)c1c([N+](=O)[O-])cc(C(F)(F)F)c(N)c1[N+](=O)[O-] [prodiamine, N3,N3-di-n-propyl-2,4-dinitro-6-(trifluoromethyl)-m-phenylenediamine]
- Solubility, g prodiamine/g solvent (solvent Aromatic 150 (Aromatic Hydrocarbon)): 0.080 g prodiamine/g solvent
- Solubility, g prodiamine/g solvent (solvent Aromatic 200 (Aromatic Hydrocarbon)): 0.070 g prodiamine/g solvent
- Solubility, g prodiamine/g solvent (solvent Carbitol TM (Diethylene glycol monomethyl ether)): 0.010 g prodiamine/g solvent
- Solubility, g prodiamine/g solvent (solvent DEGEE (Diethylene glycol monoethyl ether)): 0.050 g prodiamine/g solvent
- Solubility, g prodiamine/g solvent (solvent Glycol DPM (Dipropylene glycol methyl ether)): 0.008 g prodiamine/g solvent
- Solubility, g prodiamine/g solvent (solvent Glycol Ether EB (Diethylene glycol monobutyl ether)): 0.020 g prodiamine/g solvent
- Solubility, g prodiamine/g solvent (solvent Jefsol 1555 (Proprietary Solvent (Carbonate))): 0.004 g prodiamine/g solvent
- prodiamine dissolved per gram solvent (solvent NMP): 0.68 grams prodiamine per gram solvent
